Laboratory results published in PMC5427923, “A novel CCR2 antagonist inhibits atherogenesis in apoE deficient mice by achieving high receptor occupancy” (Scientific Reports, 2017).

System: CCR2
Experiment: Pharmacokinetics-based prediction of target occupancy
Set-up: species or system mouse
Conditions: calculated/simulated from plasma concentrations, single dose 5 mg/kg i.p., for 24 hours
Description: The target occupancy was calculated for each measurement of the drug concentration, according to equation (1), in which [C] is the concentration of the drug in the blood and KD is the drug target affinity.1 TargetOccupancy(%)=[C]/[C]+KD×100%
In addition, a simple mathematical model was used to simulate target occupancy for the observed in vivo pharmacokinetics and in vitro binding kinetics according to the equations in the next section (equations (3–5)).
To determine the maximal value of k off that would prolong the receptor occupancy even further, we used equation (2)[28], in which BF represents the percentage of target occupancy divided by 100 and t 1/2el represents the plasma elimination half-life (0.693/k el). In this case we set BF to 0.90, as 90% represents the minimum value of target occupancy to achieve efficacy. To obtain the elimination rate constant of compound 15a, a linear regression analysis of the natural logarithm of the concentrations versus time was performed, and the slope coefficient was used as the elimination rate constant k el.2 koff<0.693⋅(1−BF)/t1/2el
The concentrations of unbound drug in the blood [C] and target-bound drug [LR] were modeled according to equations (3–5). […]
The concentration of the target-bound drug is calculated according to equation (5):5 d[LR]/dt=kon⋅[C]⋅[Rfree]−koff⋅[LR] […]

`CC(C)[C@]1(C(=O)N2CCc3ccc(C(F)(F)F)cc3C2)CC[C@@H](N[C@@H]2CCc3cc(Br)ccc32)C1` [15a, ((1S,3R)-3-(((R)-5-bromo-2,3-dihydro-1H-inden-1-yl)amino)-1-isopropylcyclopentyl)(7-(trifluoromethyl)-3,4-dihydroisoquinolin-2(1H)-yl)methanone] was tested, and the “target occupancy (CCR2)” value was over 90%.
